This is an account of results in ChEMBL document CHEMBL3507680, “University of Dundee, Gates Library screen for HepG2 cell viability”.

The series in a line: Human HepG2 cell viability assay in 384 well format. In kind it is toxicity, cell-based. Also on record: dose 125 nL, time 70.5 hour; concentration not given beside the values. The settings on record: HepG2 cells, read-out: Inhibition.
As to `COCC(=O)N1CC2=CC(C)(C)COc3ccc(OC)c(c32)C1`, the cytotoxicity at 70.5 h was found to be 21.5%.
Then `COCC1CN(Cc2ccoc2)Cc2nnn(C)c21` (stereo not given), with -13.7%.
Then `CN1Cc2c(C(=O)NC3CCCCC3)ncn2-c2ccccc2S1(=O)=O`, with 2.35%; and `C1CCCN(c2nc(C3CC3)ns2)CC1`, with 15.3%.
With `COc1ccc(CC(=O)N2CCN(C)c3ncccc3C2)cc1`, the cytotoxicity at 70.5 h is 11.6%.
Next, `CCN(CC(C)C#N)C(=O)CNc1ccc(C(N)=O)c(C)c1` (stereo not given): -1.05%.
Then `CC(C)c1ccc(CN2CCC3(CCCN(c4nncs4)C3)C2)cc1` (stereo not given), with -4.12%; and `CCCn1cc(-c2ccnc(NC3CCc4ccccc4C3)n2)c(C)n1` (stereo not given), with 19.3%; and `CSCCC1CC(=O)Nc2cc(O)c(C)cc21` (stereo not given), with 25.3%.
Then `CC(C)CNC[C@H]1COCc2nc3cccnc3n21`, with 10%; and `COc1ccc(C(=O)Nc2ccc3ncn(C(C)C)c(=O)c3c2)cc1`, with -3.51%; and `N#CCC(=O)NCc1nnc2n1CCN(Cc1ccsc1)C2`, with 9.84%.
Consider `COCCc1noc(C2CCCN(c3nc(N)nc4c3CCCC4)C2)n1` (stereo not given), for which the cytotoxicity at 70.5 h came out at 3.87%.
Then `CC(C)c1nc(C2CCCN(C(=O)Cc3cccnc3)C2)no1` (stereo not given), with -16.6%.
Then `Cc1nccc([C@H]2C[C@@H]3CCN(S(C)(=O)=O)C[C@H]3O2)n1`, with -0.795%.
Next, `COc1ncccc1C(=O)N1CC[C@H]2C[C@@H](c3ccncn3)O[C@@H]2C1`: -18%; `COCCc1noc(-c2cn(CCc3ccccc3)nn2)n1`: 2.44%.
In the case of `COCCN1CCCC(c2nc(C)n3c(C)c(C)sc23)C1` (stereo not given), the cytotoxicity at 70.5 h was -5.38%.
Consider `Nc1cc2c(nn1)CCN(C(=O)c1ccc(Oc3cccnc3)cc1)C2`, for which the cytotoxicity at 70.5 h was -9.26%.
Turning to `CC(C)CS(=O)(=O)N1C[C@H]2C[C@H](C(=O)N3CCOCC3)[C@@H](C1)O2`, the cytotoxicity at 70.5 h amounted to 13.9%.
Next, `Cc1nnc(CN(C)C2CCN(c3cccc(-c4cscn4)c3)CC2)o1`: -3.22%; `COCc1nc(CNC2CCSC2)no1` (stereo not given): -2.87%; `CC(O)CN1CCN(C(=O)c2cnn(-c3ccccc3F)c2)CC1` (stereo not given): -6.92%.
Then `CN(CCC(F)(F)F)C(=O)c1nc(S(C)(=O)=O)n2ccccc12`, with 25.3%.
Then `Cc1cc(C)n(CCCNC(=O)C(C)NC(=O)c2ccccc2Cl)n1` (stereo not given), with -8.83%; and `CN(C)Cc1nnc2n1CCN(c1cnccn1)CC2`, with 0.405%; and `CNCC(=O)N1CCCCC1c1nccc(C)n1` (stereo not given), with 16.2%.
`Cc1[nH]c(-c2ccccc2)nc1C(=O)N1CCC2(CCCO2)CC1`: the cytotoxicity at 70.5 h is -2.81%.
Then `O=c1[nH]c2ncccc2n1C1CCNCC1`, with -11%; and `CC(COc1ccccc1)NS(C)(=O)=O` (stereo not given), with -1.8%; and `CC(=O)Nc1ccc(C(=O)N(C)Cc2cccc(F)c2)s1`, with -105%.
Then `CC(C)(C)NC(=O)C1CCCCN1Cc1nccn1CC(F)(F)F` (stereo not given), with -0.987%.
`O=C(C1CCC1)N1CC[C@]2(O)CCN(Cc3ncccn3)C[C@@H]2C1`: the cytotoxicity at 70.5 h is -9.87%.
Then `COc1ccc(-c2nc(CSC3CCCCNC3=O)co2)cc1` (stereo not given), with -3.03%.
Then `Cc1csc(N2CCCN(C(=O)Cc3cccs3)CC2)n1`, with -5.57%.
Next, `CCc1nc2n(n1)CC(NCc1nc(-c3cccnc3)no1)CC2` (stereo not given): -10.5%; `COc1ncc(C2CC(=O)NCc3nc4ccccn4c32)cn1` (stereo not given): -13.5%; `O=C(c1cccnc1SCc1ccccc1)N1CC[C@@H](O)C1`: 29.6%.
For the compound `CCc1cc(NC(C)(C)C)nc(N2CCOCC2)n1`, the cytotoxicity at 70.5 h is -12%.
Then `CC(C)n1nc2c(cc1=O)CN(CCCN1CCCC1=O)CC2`, with -9.82%.
Then `NS(=O)(=O)CCN1CCOC(c2ccsc2)C1` (stereo not given), with 1.05%.
In the case of `Clc1ccccc1-c1nc(CNCCn2cccn2)cs1`, the cytotoxicity at 70.5 h is -6.01%.
For the compound `CN1CCNC(Cc2ccc(-c3cccs3)cc2)C1=O` (stereo not given), the cytotoxicity at 70.5 h was -6.3%.
Next, `CC(C)(O)CCc1cccc(C(=O)N2CCC3(CCO3)CC2)c1`: -1.91%; `Cc1cc(NCCC(=O)NC2CCS(=O)(=O)C2)nc(-c2ccncc2)n1` (stereo not given): -8.91%; `COc1ccc2[nH]c(C(=O)NCC3(N)CCCC3)cc2c1`: -7.33%.
Then `CCN(CC)C(=O)c1ccc(-c2ccsc2)nc1C`, with -6.78%; and `Cc1cc(C(=O)N(C)Cc2ccoc2)c(NC(=O)C(C)(C)C)s1`, with -3.77%; and `O=C(NCC1CC1)N1CCN(Cc2ccc3c(c2)OCCO3)CC1`, with 2.86%.
Next, `CC(C)(C)c1cnc(CN(Cc2cccnc2)CC2CCCO2)o1` (stereo not given): -12.3%; `CNc1nc(C2CCN(C(=O)CC3CCCC3)C2)nc2c1CN(C)CC2` (stereo not given): 8.17%.
For the compound `CC1(C)CNC(=O)c2nc(CCN3CCC(O)CC3)[nH]c2C1`, the cytotoxicity at 70.5 h is -1.47%.
Regarding `Cc1cc(NC(=O)N2CCN(C)CC2C)n(C(C)(C)C)n1` (stereo not given), the cytotoxicity at 70.5 h was -9.8%.
Then `COC(=O)c1cc2c(OC)c(OC)c(OC)cc2[nH]1`, with -19.4%; and `O=C1CC[C@H]2[C@H](CCN2C(=O)N2CCCC2)N1Cc1ccncc1`, with 50.7%; and `CN(C)c1cc(CNC(=O)Nc2nccs2)ccn1`, with -1.57%.
Then `CC1CN(Cc2ccc(C#N)cc2F)CCN1Cc1nccn1C` (stereo not given), with -5.45%; and `CC(C)c1nc(CC(=O)N2CCCC(n3cncn3)C2)cs1` (stereo not given), with 2.88%; and `CC(=O)N1CCC(Cc2cnc(-c3c(C)n[nH]c3C)cn2)CC1`, with 18.9%.
Next, `COCCN1CC[C@]2(CN(Cc3cccnc3)C[C@H]2C)C1=O`: -10.8%.
As to `COc1cccc(C(=O)N2C[C@@H](C(=O)O)[C@H](c3ccccc3C)C2)c1`, the cytotoxicity at 70.5 h came out at 6.74%.
Next, `CC(=O)N(CCc1ccccc1)CC(=O)NC(C)(C)C#N`: -2.72%; `CNc1cc(C(=O)N2CCOC(C(=O)NC3CCCC3)C2)ccn1` (stereo not given): -2.84%; `c1cncc(-c2nnc(C3(c4ccc5c(c4)OCO5)CCOCC3)o2)c1`: -15.4%.
Then `Cc1ccnn1CCC(=O)N1C[C@H]2CC[C@@H]1CN(CC(=O)N(C)C)C2`, with -0.432%; and `O=C(NCC1(O)CCC1)c1cccc(-n2cccn2)c1`, with -11.6%; and `COc1ccc2cc(C(=O)N3CCCCC3Cn3cccn3)[nH]c2c1` (stereo not given), with -3.69%.
Next, `O=C(NCCc1cccs1)C1(N2CCCCC2)Cc2ccccc2C1`: -7.46%.
For the compound `CCc1nsc(N2CCN(C(=O)COc3ccccc3)CC2)n1`, the cytotoxicity at 70.5 h is -6.06%.
With `COCc1ccccc1CNC(=O)CNc1cccc(Cl)c1OC`, the cytotoxicity at 70.5 h was -2.8%.
Then `CC(=O)N1CCCC(c2ccc(Nc3nc(C)cc(C)n3)cn2)C1` (stereo not given), with -12%.
Then `Cc1cnn(CCNCC(=O)NCc2ccccc2)c1`, with -12.3%; and `NCC(=O)N1CCCC(O)(CN2CCN(c3ccccc3)CC2)CC1` (stereo not given), with 4.71%; and `Cc1cc(C(=O)Nc2cc(C3CC3)n[nH]2)c2c(C)nn(C)c2n1`, with -12.4%.
As for `Cc1csc(N2CCCN(C(=O)C(C(C)C)n3cncn3)CC2)n1` (stereo not given), the cytotoxicity at 70.5 h turned out to be 2.24%.
As to `Cc1nc(C(=O)N2CCC(Cc3cnc4[nH]ccc4c3)C2)co1` (stereo not given), the cytotoxicity at 70.5 h was 18.9%.
Take `CCn1nc2c(cc1=O)CN(CC(=O)Nc1nnc(C)s1)CC2`: the cytotoxicity at 70.5 h is -15%.
Next, `CN(Cc1ccsc1)C(=O)Nc1ccc(=O)n(C)c1`: -6.48%.
Next, `Cc1cnn(CC2CCCCN2Cc2cc(C)no2)c1` (stereo not given): -8.3%; `Cn1cnnc1C1CCCN(C(=O)c2ccc3c(c2)OCCO3)C1` (stereo not given): -4.4%; `CCC(CC(=O)NS(=O)(=O)C(C)C)c1ccccc1` (stereo not given): 11.1%.
For `COCc1nc(CNC2CCCc3c2cnn3C(C)(C)C)cs1` (stereo not given), the cytotoxicity at 70.5 h was -6.43%.
Next, `CN(C(=O)c1ccc(-n2ncc(C#N)c2N)cc1)C1CCCC1`: -1.19%; `O=C(Cn1ccc2ccccc21)Nc1cc(N2CCCC2)ncn1`: 3.21%; `COc1cccc(-c2cccc(CN3C[C@@H]4CC[C@H](C3)N(C)C4=O)c2)c1`: 14.8%.
With `Cc1noc(C)c1C(=O)NCCN1CCN(S(C)(=O)=O)CC1`, the cytotoxicity at 70.5 h was -1.17%.
Then `COc1ccc(-c2ccc(C(=O)O)c(F)c2)c(F)c1`, with 27.5%; and `O=C(O)c1ccc(-c2cscn2)cc1`, with -6.68%.
Then `Cc1cc(C(=O)NCC2CCCC2)c(C)n1-c1cccnc1`, with -6.04%; and `C[C@H]1CN(CC2CCOCC2)C[C@@]12CCN(Cc1cccnc1)C2=O`, with -9.39%; and `CSc1ccc2c(C)cc(N[C@@H](C)CO)nc2c1`, with 23.3%.
As for `COCCCC(=O)N1CC(=O)Nc2cc(Br)ccc21`, the cytotoxicity at 70.5 h is -3.54%.
Next, `CSCCCN1CCN(c2ccc(Cl)cn2)CC1`: -5.7%; `CC(C)CC(NC(=O)CSCC(N)=O)c1cccs1` (stereo not given): -5.44%.
Next, `Cc1cc(C)n(CC(=O)N2Cc3cnc(C(C)(C)C)nc3C2)n1`: -4.01%.
Next, `CC(O)CC(C)(C)CNC(=O)NCc1cccc(-n2ccnc2)c1` (stereo not given): -7.65%.
Consider `CCn1ncc(Cl)c1CN(C)C(=O)CCn1ncc(Br)c1C`, for which the cytotoxicity at 70.5 h was -18%.
For `COCCCSc1ccc(NCc2ccc(C)cn2)cc1`, the cytotoxicity at 70.5 h is -6.35%.
Turning to `CC(C)Cn1ncc2cc(C(=O)N(C)CCc3ccccc3)cnc21`, the cytotoxicity at 70.5 h is -8.96%.
Regarding `CC(C1CCN(Cc2c(Cl)cncc2Cl)CC1)N1CCOCC1` (stereo not given), the cytotoxicity at 70.5 h is -5.73%.
